Data on one molecule can be found in patent publication US20080269142A1, “ENDOGENOUS THIADIAZABICYCLO GLUTATHIONE-ADDUCT” (priority 2006, published 2008).

The subject of the test is EA.hy 926 endothelial cells. Put plainly: Apoptosis (morphological changes) in treated EA.hy 926 endothelial cells. The class given is cell-based. The procedure: EA.hy 926 endothelial cells were incubated in DMEM (10 mL) containing 10% FBS, 100 unit/mL of penicillin, and 100 μg/mL of streptomycin at 37° C. in an atmosphere of 5% CO2. After the cells reached 70-80% confluence (approximately 2×10^6 cells), the complete DMEM was removed and replaced with FBS-free DMEM for treatment with dimethyl-TOG.
As the result, there was little accumulation of TOG in the cells. […] Therefore, high doses of dimethyl-TOG (100 μM and 200 μM) were chosen to detect an apoptosis-inducing effect. When the cells were treated with dimethyl-TOG, typical morphological changes of apoptosis, such as detachment from the substrate, shrinkage, and membrane blebbing were observed as early as 1 h after treatment.
GGT mediates the first step of hydrolysis of extracellular GSH. The hydrolyzed amino acids will be transported back to the cells for GSH biosynthesis (4). Without GGT activity, there would be accumulation of GSH in the extracellular medium and depletion of intracellular GSH.

Consider `CCCCCC(=O)/C=C/C=O` [ONE, 4-oxo-2(E)-nonenal], for which the “apoptosis after 8 h of incubation” value (10 μM ONE, 8 h) is given as “most of the cells treated with 10 μM ONE went to complete apoptosis”. Besides, the apoptosis-inducing effect entry (ONE 1 μM alone) is given as “no apoptosis-inducing effect”.
